IC50, Activity and inhibition data for 6 compounds are collected here from ChEMBL document CHEMBL1150835, “In vitro antiplasmodial activity of extracts of Tristaniopsis species and identification of the active constituents: ellagic acid and 3,4,5-trimethoxyphenyl-(6'-O-galloyl)-O-beta-D-glucopyranoside” (J Nat Prod, 2001).

The test system of data set [1] is Plasmodium falciparum. The data set can be described thus: Antiplasmodial activity after 24 hrs against chloroquine-resistant, mefloquine-sensitive Plasmodium falciparum W2 infected human erythrocytes by [G-3H]hypoxanthine uptake. Format: functional, organism-based. Conditions: W2, 24 h.
For data set [2], the system named is Plasmodium falciparum. Kind of data set: Antiplasmodial activity after 24 hrs against chloroquine-sensitive, mefloquine-resistant Plasmodium falciparum D6 infected human erythrocytes by [G-3H]hypoxanthine uptake. Format: functional, organism-based. As to conditions: D6, 24 h.
The nature of data set [3]: Cytotoxicity against HSF assessed as decrease in proliferation at 100 uM by MTT assay. Set-up: scale not given: the % may be the effect or the level left. As to conditions: human. A general note: Formazan colour is commonly taken as a measure of viable cells.
For a further data set, the system named is HepG2. Kind of data set: (§1) Cytotoxicity against human HepG2 cells assessed as decrease in proliferation at 100 uM by MTT assay. In kind it is cell-based. As to conditions: hepg2, 100 µM.
Data set [4] is described as follows: as §1. Format: cell-based. As to conditions: HepG2 cells, read-out: Activity.

Values after ≈ are worked out from the molar mass of the structure shown.

In the data set on Plasmodium falciparum [1], `OC(c1cc(C(F)(F)F)nc2c(C(F)(F)F)cccc12)C1CCCCN1` (configuration not stated) [MEFLOQUINE] had a half-maximal inhibitory concentration (IC50) of 0.00136 µg/mL (≈ 0.00359 µM).
In turn, `O=C(O)c1cc(O)c(O)c(O)c1` [GALLIC ACID] yielded an IC50 in the data set on Plasmodium falciparum [2] greater than 5 µg/mL.
As to `COc1cc(O[C@@H]2O[C@H](COC(=O)c3cc(O)c(O)c(O)c3)[C@@H](O)[C@H](O)[C@H]2O)cc(OC)c1OC`, the figures for the concentration for half-maximal inhibition (IC50) in the data set with Plasmodium falciparum [1] and in the data set with Plasmodium falciparum [2] were 1.58 µg/mL (≈ 3.18 µM) and 1.75 µg/mL (≈ 3.5 µM), respectively. Besides, the Activity entry (in data set [3]; with HepG2) was “Non-toxic” each time.
`O=c1oc2c(O)c(O)cc3c(=O)oc4c(O)c(O)cc1c4c23` [ELLAGIC ACID]: the half-maximal inhibitory concentration (IC50) was 0.103 µg/mL (≈ 0.341 µM) in the data set with Plasmodium falciparum [1] and 0.145 µg/mL (≈ 0.48 µM) in the data set on Plasmodium falciparum [2]. In addition, the Activity in data set [3] came to 20%. Further, the inhibition at 100 µM in data set [4] stood at 9%.
For `O=C(O)c1ccc(O)cc1` [PARABEN], in the data set on Plasmodium falciparum [2], the half-maximal inhibitory concentration (IC50) was greater than 5 µg/mL.
Still for that read-out and setting: for `O=C(O)c1ccc(O)c(O)c1` [PROTOCATECHUIC ACID] the value was greater than 5 µg/mL.

One may read the IC50 as the point on the concentration scale where inhibition reaches its midpoint.
